This is an account of results in US20200361895A1, “NOVEL SULFONAMIDE CARBOXAMIDE COMPOUNDS” (Inflazome Limited, priority 2017, published 2020).

pIC50: −log10 of the molar value. Counter-ions that a name gives are not always drawn.

The target of the experiment is NLRP3 (Homo sapiens, UniProt Q96P20). In words: THP-1 cells pyroptosis assay (LPS + nigericin, resazurin readout; THP IC50). Set-up: Seed THP-1 cells (25,000 cells/well) containing 1.0 μg/ml LPS in 40 μl of RPMI medium; host or cells: THP-1 cells. In kind it is cell-based. The protocol: THP-1 cells (ATCC #TIB-202) were grown in RPMI containing L-glutamine (Gibco #11835) supplemented with 1 mM sodium pyruvate (Sigma #S8636) and penicillin (100 units/ml)/streptomycin (0.1 mg/ml) (Sigma #P4333) in 10% Fetal Bovine Serum (FBS) (Sigma #F0804). The cells were routinely passaged and grown to confluency (˜10^6 cells/ml). On the day of the experiment, THP-1 cells were harvested and resuspended into RPMI medium (without FBS). The cells were then counted and viability (>90%) checked by Trypan blue (Sigma #T8154). Appropriate dilutions were made to give a concentration of 625,000 cells/ml. To this diluted cell solution was added LPS (Sigma #L4524) to give a 1 μg/ml Final Assay Concentration (FAC). 40 μl of the final preparation was aliquoted into each well of a 96-well plate. The plate thus prepared was used for compound screening.
NLRP3, sequence (Q96P20 whole entry): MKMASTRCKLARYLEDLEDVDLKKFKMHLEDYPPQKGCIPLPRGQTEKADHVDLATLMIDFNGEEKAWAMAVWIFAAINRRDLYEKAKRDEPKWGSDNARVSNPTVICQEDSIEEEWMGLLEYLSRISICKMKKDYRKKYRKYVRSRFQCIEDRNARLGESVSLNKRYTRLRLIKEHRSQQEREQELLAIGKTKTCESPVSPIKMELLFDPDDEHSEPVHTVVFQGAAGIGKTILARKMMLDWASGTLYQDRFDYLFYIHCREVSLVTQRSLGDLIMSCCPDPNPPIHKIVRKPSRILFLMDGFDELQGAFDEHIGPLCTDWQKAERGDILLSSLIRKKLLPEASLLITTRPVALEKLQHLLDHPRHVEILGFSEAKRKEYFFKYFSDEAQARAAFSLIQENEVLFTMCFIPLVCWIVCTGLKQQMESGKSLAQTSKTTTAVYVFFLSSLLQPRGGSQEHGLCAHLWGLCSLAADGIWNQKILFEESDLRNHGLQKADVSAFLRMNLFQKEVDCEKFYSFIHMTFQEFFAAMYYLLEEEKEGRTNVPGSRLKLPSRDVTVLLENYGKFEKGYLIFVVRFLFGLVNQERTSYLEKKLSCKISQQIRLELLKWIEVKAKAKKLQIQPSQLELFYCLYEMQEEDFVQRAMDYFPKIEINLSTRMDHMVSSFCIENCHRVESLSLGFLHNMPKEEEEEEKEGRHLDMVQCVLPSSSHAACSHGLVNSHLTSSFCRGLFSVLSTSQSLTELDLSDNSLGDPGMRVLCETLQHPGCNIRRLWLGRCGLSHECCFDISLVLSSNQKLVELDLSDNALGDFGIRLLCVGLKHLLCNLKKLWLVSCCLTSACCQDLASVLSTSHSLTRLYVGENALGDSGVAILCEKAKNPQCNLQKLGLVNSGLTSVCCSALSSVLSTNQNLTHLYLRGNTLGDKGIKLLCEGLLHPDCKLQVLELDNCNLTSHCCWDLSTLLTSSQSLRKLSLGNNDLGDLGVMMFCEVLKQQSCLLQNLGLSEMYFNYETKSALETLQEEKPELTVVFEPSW
The following method step-by-step assay was followed for compound screening. • 1. Seed THP-1 cells (25,000 cells/well) containing 1.0 μg/ml LPS in 40 μl of RPMI medium (without FBS) in 96-well, black walled, clear bottom cell culture plates coated with poly-D-lysine (VWR #734-0317) • 2. Add 5 μcompound (8 points half-log dilution, with 10 μM top dose) or vehicle (DMSO 0.1% FAC) to the appropriate wells • 3. Incubate for 3 hrs at 37° C. and 5% CO2 • 4. Add 5 μnigericin (Sigma #N7143) (FAC 5 μM) to all wells • 5. Incubate for 1 hr at 37° C. and 5% CO2 • 6. At the end of the incubation period, spin plates at 300×g for 3 mins and remove supernatant • 7. Then add 50 μl of resazurin (Sigma #R7017) (FAC 100 μM resazurin in RPMI medium without FBS) and incubate plates for a further 1-2 hrs at 37° C. and 5% CO2 • 8. Plates were read in an Envision reader at Ex 560 nm and Em 590 nm • 9. IC50 data is fitted to a non-linear regression equation (log inhibitor vs response-variable slope 4-parameters)
On the technique in general: Alamar Blue is a resazurin reagent that responds to reducing activity.
A word on the pIC50: it is the negative decadic logarithm of the IC50, by convention in mol/L. In the case of `CC(C)c1cc(F)cc(-c2ccnc(C(N)=O)c2)c1NC(=O)NS(=O)(=O)c1cc(CN(C)C)n(C)n1` [Example 67, 4-(2-(3-((5-((Dimethylamino)methyl)-1-methyl-1H-pyrazol-3-yl)sulfonyl)ureido)-5-fluoro-3-isopropylphenyl)picolinamide], the pIC50 is not below 5.30. `CC(C)c1cc(F)cc(-c2ccnc(C#N)c2)c1NC(=O)NS(=O)(=O)C1CN(C(C)C)C1` [Example 74, N-((2-(2-Cyanopyridin-4-yl)-4-fluoro-6-isopropylphenyl)carbamoyl)-1-isopropylazetidine-3-sulfonamide]: the negative-log IC50 (pIC50) is not below 5.00. `COc1cc(-c2cc(F)cc(C(C)C)c2NC(=O)NS(=O)(=O)C2CN(C(C)C)C2)ccn1` [Example 75, N-((4-Fluoro-2-isopropyl-6-(2-methoxypyridin-4-yl)phenyl)carbamoyl)-1-isopropylazetidine-3-sulfonamide]: the negative logarithm of the IC50 (pIC50) was not below 6.30. Regarding `CC(C)c1cc(F)cc(-c2ccnc(C#N)c2)c1NC(=O)NS(=O)(=O)C1CN(C2CCC2)C1` [Example 78, N-((2-(2-Cyanopyridin-4-yl)-4-fluoro-6-isopropylphenyl)carbamoyl)-1-cyclobutylazetidine-3-sulfonamide], the negative-log IC50 (pIC50) was not below 5.00. On to `COc1cc(-c2cc(F)cc(C(C)C)c2NC(=O)NS(=O)(=O)C2CN(C3CCC3)C2)ccn1` [Example 79, 1-Cyclobutyl-N-((4-fluoro-2-isopropyl-6-(2-methoxypyridin-4-yl)phenyl)carbamoyl)azetidine-3-sulfonamide], for which the negative logarithm of the IC50 (pIC50) was not below 6.30.

As to `COc1cc(-c2ccc3c(c2NC(=O)NS(=O)(=O)C2CN(C4CCC4)C2)CCC3)ccn1` [Example 80, 1-Cyclobutyl-N-((5-(2-methoxypyridin-4-yl)-2,3-dihydro-1H-inden-4-yl)carbamoyl)azetidine-3-sulfonamide], the negative logarithm of the IC50 (pIC50) is not below 6.30. Under `CCN1CC(S(=O)(=O)NC(=O)Nc2c(-c3ccnc(C#N)c3)cc(F)cc2C(C)C)C1` [Example 82, N-((2-(2-Cyanopyridin-4-yl)-4-fluoro-6-isopropylphenyl)carbamoyl)-1-ethylazetidine-3-sulfonamide] stands not below 5.00; under `CCN1CC(S(=O)(=O)NC(=O)Nc2c(-c3ccncc3)cc(F)c3c2CCC3)C1` [Example 85, 1-Ethyl-N-((7-fluoro-5(pyridin-4-yl)-2,3-dihydro-1H-inden-4-yl)carbamoyl)azetidine-3-sulfonamide], not below 6.00. Consider `CC(C)c1cc(F)cc(-c2ccnc(C#N)c2)c1NC(=O)NS(=O)(=O)C1CN(Cc2cccnc2)C1` [Example 86, N-((2-(2-Cyanopyridin-4-yl)-4-fluoro-6-isopropylphenyl)carbamoyl)-1-(pyridin-3-ylmethyl)azetidine-3-sulfonamide], for which the pIC50 was not below 5.00. In the case of `O=C(Nc1c(-c2ccncc2)cc(F)c2c1CCC2)NS(=O)(=O)C1CN(Cc2cccnc2)C1` [Example 88, N-((7-Fluoro-5-(pyridin-4-yl)-2,3-dihydro-1H-inden-4-yl)carbamoyl)-1-(pyridin-3-ylmethyl)azetidine-3-sulfonamide], the negative-log IC50 (pIC50) was not below 6.00. For `CC(C)c1cc(F)cc(-c2ccnc(C#N)c2)c1NC(=O)NS(=O)(=O)c1ccc(=O)n(C(C)C)c1` [Example 89, N-((2-(2-cyanopyridin-4-yl)-4-fluoro-6-isopropylphenyl)carbamoyl)-1-isopropyl-6-oxo-1,6-dihydropyridine-3-sulfonamide], the negative logarithm of the IC50 (pIC50) was not below 6.30. Under `COc1cc(-c2cc(F)cc(C(C)C)c2NC(=O)NS(=O)(=O)c2ccc(=O)n(C(C)C)c2)ccn1` [Example 90, N-((4-Fluoro-2-isopropyl-6-(2-methoxypyridin-4-yl)phenyl)carbamoyl)-1-isopropyl-6-oxo-1,6-dihydropyridine-3-sulfonamide] stands not below 6.30. As to `CC(C)c1cc(F)cc(-c2cccnc2)c1NC(=O)NS(=O)(=O)C1CCN(C(C)C)CC1` [Example 93, N-((4-Fluoro-2-isopropyl-6-(pyridin-3-yl)phenyl)carbamoyl)-1-isopropylpiperidine-4-sulfonamide], the pIC50 is not below 5.00. As to `CCN1CCC(S(=O)(=O)NC(=O)Nc2c(-c3ccnc(OC)c3)cc(F)c3c2CCC3)CC1` [Example 97, 1-Ethyl-N-((7-fluoro-5-(2-methoxypyridin-4-yl)-2,3-dihydro-1H-inden-4-yl)carbamoyl)piperidine-4-sulfonamide, potassium salt], the negative-log IC50 (pIC50) was not below 5.30. Under `CCN1CCC(S(=O)(=O)NC(=O)Nc2c(-c3ccnc(C#N)c3)ccc3c2CCC3)CC1` [Example 99, N-((5-(2-Cyanopyridin-4-yl)-2,3-dihydro-1H-inden-4-yl)carbamoyl)-1-ethylpiperidine-4-sulfonamide, potassium salt] stands not below 5.00; under `CCN1CCC(S(=O)(=O)NC(=O)Nc2c(-c3ccnc(OC)c3)cc(F)cc2C(C)C)CC1` [Example 100, 1-Ethyl-N-((4-fluoro-2-isopropyl-6-(2-methoxypyridin-4-yl)phenyl)carbamoyl)piperidine-4-sulfonamide, potassium salt], not below 5.30. With `CC(C)c1cc(F)cc(-c2ccnc(C#N)c2)c1NC(=O)NS(=O)(=O)c1cncc(N(C)C)n1` [Example 102, N-((2-(2-Cyanopyridin-4-yl)-4-fluoro-6-isopropylphenyl)carbamoyl)-6-(dimethylamino)pyrazine-2-sulfonamide], the pIC50 was not below 6.30.

Take `COc1cc(-c2cc(F)cc(C(C)C)c2NC(=O)NS(=O)(=O)c2cnc(N(C)C)cn2)ccn1` [Example 107, 5-(Dimethylamino)-N-((4-fluoro-2-isopropyl-6-(2-methoxypyridin-4-yl)phenyl)carbamoyl)pyrazine-2-sulfonamide]: the pIC50 was not below 6.30. For the compound `CC(C)c1cc(F)cc(-c2ccnc(C#N)c2)c1NC(=O)NS(=O)(=O)c1nccnc1C(F)F` [Example 110, N-((2-(2-Cyanopyridin-4-yl)-4-fluoro-6-isopropylphenyl)carbamoyl)-3-(difluoromethyl)pyrazine-2-sulfonamide], the negative logarithm of the IC50 (pIC50) was not below 5.00. As to `COc1cc(-c2cc(F)cc(C(C)C)c2NC(=O)NS(=O)(=O)c2nccnc2C(F)F)ccn1` [Example 111, 3-(Difluoromethyl)-N-((4-fluoro-2-isopropyl-6-(2-methoxypyridin-4-yl)phenyl)carbamoyl)pyrazine-2-sulfonamide], the negative-log IC50 (pIC50) was not below 5.30. Regarding `COc1cc(-c2ccc3c(c2NC(=O)NS(=O)(=O)c2nccnc2C(F)F)CCC3)ccn1` [Example 112, 3-(Difluoromethyl)-N-((5-(2-methoxypyridin-4-yl)-2,3-dihydro-1H-inden-4-yl)carbamoyl)pyrazine-2-sulfonamide], the negative-log IC50 (pIC50) is not below 6.00. In the case of `O=C(Nc1c(-c2ccncc2)cc(F)c2c1CCC2)NS(=O)(=O)c1nccnc1C(F)F` [Example 113, 3-(Difluoromethyl)-N-((7-fluoro-5-(pyridin-4-yl)-2,3-dihydro-1H-inden-4-yl)carbamoyl)pyrazine-2-sulfonamide], the pIC50 is not below 5.30. Take `COc1cc(-c2cc(F)cc(C(C)C)c2NC(=O)NS(=O)(=O)c2nc(C)cc(C)n2)ccn1` [Example 115, N-((4-Fluoro-2-isopropyl-6-(2-methoxypyridin-4-yl)phenyl)carbamoyl)-4,6-dimethylpyrimidine-2-sulfonamide]: the pIC50 is not below 6.30. Regarding `CC(C)c1cc(F)cc(-c2ccnc(C#N)c2)c1NC(=O)NS(=O)(=O)Cc1ccccc1` [Example 127, N-((2-(2-Cyanopyridin-4-yl)-4-fluoro-6-isopropylphenyl)carbamoyl)-1-phenylmethanesulfonamide], the pIC50 was not below 5.00. For the compound `COc1cc(-c2cc(F)cc(C(C)C)c2NC(=O)NS(=O)(=O)Cc2ccccc2)ccn1` [Example 128, N-((4-Fluoro-2-isopropyl-6-(2-methoxypyridin-4-yl)phenyl)carbamoyl)-1-phenylmethanesulfonamide], the negative-log IC50 (pIC50) was not below 6.00. Under `COc1cc(-c2ccc3c(c2NC(=O)NS(=O)(=O)Cc2ccccc2)CCC3)ccn1` [Example 129, N-((5-(2-Methoxypyridin-4-yl)-2,3-dihydro-1H-inden-4-yl)carbamoyl)-1-phenylmethanesulfonamide] stands not below 5.30. Consider `O=C(Nc1c(-c2ccncc2)cc(F)c2c1CCC2)NS(=O)(=O)Cc1ccccc1` [Example 130, N-((7-Fluoro-5-(pyridin-4-yl)-2,3-dihydro-1H-inden-4-yl)carbamoyl)-1-phenylmethanesulfonamide], for which the pIC50 is not below 5.30. Consider `CC(C)CS(=O)(=O)NC(=O)Nc1c(-c2ccnc(C#N)c2)cc(F)cc1C(C)C` [Example 131, N-((2-(2-Cyanopyridin-4-yl)-4-fluoro-6-isopropylphenyl)carbamoyl)-2-methylpropane-1-sulfonamide], for which the pIC50 is not below 5.00.
